From PMC7041945, “Misfolded proteins bind and activate death receptor 5 to trigger apoptosis during unresolved endoplasmic reticulum stress” (eLife, 2020)

Assays:
[1] = tested on: CHOP, BiP, and DR5 mRNA in HCT116 cells; experiment: qPCR of UPR target transcripts (CHOP, BiP, DR5); type: cell-based, Homo sapiens
Description: Cells were grown in 6-well plates and harvested with 0.5 ml of TRIzol reagent (Life Technologies) per manufacturer’s protocol to extract RNA. For cDNA synthesis, 500 ng of total RNA was reverse transcribed with 2 μl of the SuperScript VILO master mix (Life Technologies # 11755050) in a total reaction volume of 10 μl following the manufacturer’s protocol for reaction temperature and duration. The reverse transcription product was diluted to 200 μl with 10 mM Tris-HCl pH 8.2 and used at 1:100 dilution for subsequent RT-PCR reactions.
PCR samples were prepared as described by manufacturer’s protocols from iQ SYBR Green Supermix (BioRad #17088800).
For each experiment, qRT-PCR reactions were set up in triplicate and run using a CFX96 Real Time System (Bio-Rad). Quantitation cycles were determined with CFX Manager 3.0 software (Bio-Rad) and then normalized to GAPDH as an internal control.

GFP (340+341) = experiment: qPCR of GFP transcript (expression of GFP-tagged construct); type: cell-based; details: 24 hr, Rep 2
[2] = 24 hr, Rep 2, relative to empty traffo, mean of 3 replicates
[3] = 24 hr, Rep 2, relative to empty traffo, replicate 1
[4] = 24 hr, Rep 2, relative to empty traffo, replicate 2
[5] = 24 hr, Rep 2, relative to empty traffo, replicate 3
[6] = HCT116, 100 nM for 24 hours, avg., norm to GAPDH
[7] = HCT116, 100 nM for 24 hours, replicate 1
[8] = HCT116, 100 nM for 24 hours, replicate 2
[9] = HCT116, 100 nM for 24 hours, replicate 3
[10] = HCT116, 100 nM for 24 hours, vs GAPDH, replicate 1
[11] = HCT116, 100 nM for 24 hours, vs GAPDH, replicate 2
[12] = HCT116, 100 nM for 24 hours, vs GAPDH, replicate 3
[13] = HCT116, 100 nM Tg for 24 hours, mean of 3 replicates
[14] = HCT116, 100 nM Tg for 24 hours, replicate 1
[15] = HCT116, 100 nM Tg for 24 hours, replicate 2
[16] = HCT116, 100 nM Tg for 24 hours, replicate 3
[17] = qPCR Rep 2, WT MPZ GFP 1000 ng, or empty traffo + Tg, mean of 3
[18] = qPCR Rep 2, WT MPZ GFP 1000 ng, or empty traffo + Tg, replicate 1
[19] = qPCR Rep 2, WT MPZ GFP 1000 ng, or empty traffo + Tg, replicate 2
[20] = qPCR Rep 2, WT MPZ GFP 1000 ng, or empty traffo + Tg, replicate 3
[21] = qPCR Rep 2, WT MPZ GFP 1000 ng, or empty traffo + Tg, vs avg GAPDH, replicate 1
[22] = qPCR Rep 2, WT MPZ GFP 1000 ng, or empty traffo + Tg, vs avg GAPDH, replicate 2
[23] = qPCR Rep 2, WT MPZ GFP 1000 ng, or empty traffo + Tg, vs avg GAPDH, replicate 3

## C/C=C(/C)C(=O)O[C@H]1C(C)=C2[C@H]([C@@H]1OC(=O)CCCCCCC)[C@@](C)(OC(C)=O)C[C@H](OC(=O)CCC)[C@@]1(O)[C@H]2OC(=O)[C@@]1(C)O [thapsigargin, reference compound]
[1]; [2]
  avg. fold induction CHOP: 2.825
  avg. fold induction DR5 total: 2.175
[1]; [3]
  fold induction CHOP: 2.975
  fold induction DR5 total: 2.222
[1]; [4]
  fold induction CHOP: 2.927
  fold induction DR5 total: 2.286
[1]; [5]
  fold induction CHOP: 2.573
  fold induction DR5 total: 2.0182
[1]; 24 hr, Rep 2, replicate 1
  2^-(deltaCq) CHOP: 0.03423
  2^-(deltaCq) DR5 total: 0.06479
  Cq CHOP: 23.6206
  Cq DR5 total: 22.7
  Cq(sample) - avg Cq(GAPDH), CHOP: 4.869
  Cq(sample) - avg Cq(GAPDH), DR5 total: 3.948
[1]; 24 hr, Rep 2, replicate 2
  2^-(deltaCq) CHOP: 0.03367
  2^-(deltaCq) DR5 total: 0.06665
  Cq CHOP: 23.6444
  Cq DR5 total: 22.6592
  Cq(sample) - avg Cq(GAPDH), CHOP: 4.892
  Cq(sample) - avg Cq(GAPDH), DR5 total: 3.9072
[1]; 24 hr, Rep 2, replicate 3
  2^-(deltaCq) CHOP: 0.0296
  2^-(deltaCq) DR5 total: 0.05885
  Cq CHOP: 23.8304
  Cq DR5 total: 22.839
  Cq(sample) - avg Cq(GAPDH), CHOP: 5.078
  Cq(sample) - avg Cq(GAPDH), DR5 total: 4.087
[1]; [6]
  avg. fold induction relative to empty traffo, BiP: 12.0843 fold
  avg. fold induction relative to empty traffo, CHOP: 7.5114 fold
  avg. fold induction relative to empty traffo, DR5 total: 5.041 fold
[1]; [7]
  fold induction relative to empty traffo, BiP: 11.9233 fold
  fold induction relative to empty traffo, CHOP: 7.102 fold
  fold induction relative to empty traffo, DR5 total: 5.4959 fold
[1]; [8]
  fold induction relative to empty traffo, BiP: 12.5755 fold
  fold induction relative to empty traffo, CHOP: 7.658 fold
  fold induction relative to empty traffo, DR5 total: 4.966 fold
[1]; [9]
  fold induction relative to empty traffo, BiP: 11.754 fold
  fold induction relative to empty traffo, CHOP: 7.775 fold
  fold induction relative to empty traffo, DR5 total: 4.661 fold
[1]; [10]
  2^-(deltaCq) BiP: 1.038
  2^-(deltaCq) CHOP: 0.07495
  2^-(deltaCq) DR5 total: 0.08912
[1]; [11]
  2^-(deltaCq) BiP: 1.095
  2^-(deltaCq) CHOP: 0.08082
  2^-(deltaCq) DR5 total: 0.08052
[1]; [12]
  2^-(deltaCq) BiP: 1.023
  2^-(deltaCq) CHOP: 0.08206
  2^-(deltaCq) DR5 total: 0.07558
[1]; [13]
  GAPDH avg. fold induction relative to empty traffo: 1.006
  GFP avg. fold induction relative to empty traffo: 0.1103
[1]; HCT116, 100 nM Tg for 24 hours, melt curves for these primers showed two peaks, mean of 3 replicates
  ERO1alpha (386+387) avg. fold induction relative to empty traffo: 0.8588
[1]; HCT116, 100 nM Tg for 24 hours, melt curves for these primers showed two peaks, replicate 1
  ERO1alpha (386+387) fold induction relative to empty traffo: 0.8482
[1]; HCT116, 100 nM Tg for 24 hours, melt curves for these primers showed two peaks, replicate 2
  ERO1alpha (386+387) fold induction relative to empty traffo: 0.8572
[1]; HCT116, 100 nM Tg for 24 hours, melt curves for these primers showed two peaks, replicate 3
  ERO1alpha (386+387) fold induction relative to empty traffo: 0.8711
[1]; [14]
  GADD34 (388+389) fold induction relative to empty traffo: 11.4671
  GAPDH fold induction relative to empty traffo: 1.083
  GFP fold induction relative to empty traffo: 0.1161
[1]; [15]
  GADD34 (388+389) fold induction relative to empty traffo: 11.4954
  GAPDH fold induction relative to empty traffo: 1.089
  GFP fold induction relative to empty traffo: 0.1176
[1]; [16]
  GADD34 (388+389) fold induction relative to empty traffo: 10.9924
  GAPDH fold induction relative to empty traffo: 0.847
  GFP fold induction relative to empty traffo: 0.09722
[1]; [17]
  avg. fold induction relative to WT MPZ DMSO, BiP: 6.727 fold
  avg. fold induction relative to WT MPZ DMSO, CHOP: 9.899 fold
  avg. fold induction relative to WT MPZ DMSO, DR5 total: 3.489 fold
[1]; [18]
  fold induction relative to WT MPZ DMSO, BiP: 6.3 fold
  fold induction relative to WT MPZ DMSO, CHOP: 10.9106 fold
  fold induction relative to WT MPZ DMSO, DR5 total: 3.205 fold
[1]; [19]
  fold induction relative to WT MPZ DMSO, BiP: 6.984 fold
  fold induction relative to WT MPZ DMSO, CHOP: 9.299 fold
  fold induction relative to WT MPZ DMSO, DR5 total: 3.841 fold
[1]; [20]
  fold induction relative to WT MPZ DMSO, BiP: 6.897 fold
  fold induction relative to WT MPZ DMSO, CHOP: 9.4871 fold
  fold induction relative to WT MPZ DMSO, DR5 total: 3.4208 fold
[1]; [21]
  2^-(deltaCq) BiP: 1.043
  2^-(deltaCq) CHOP: 0.04115
  2^-(deltaCq) DR5 total: 0.04765
[1]; [22]
  2^-(deltaCq) BiP: 1.156
  2^-(deltaCq) CHOP: 0.03507
  2^-(deltaCq) DR5 total: 0.05711
[1]; [23]
  2^-(deltaCq) BiP: 1.142
  2^-(deltaCq) CHOP: 0.03578
  2^-(deltaCq) DR5 total: 0.05086
GFP (340+341); relative to empty traffo, mean of 3 replicates
  avg. fold induction GFP (340+341): 0.3377
GFP (340+341); relative to empty traffo, replicate 1
  fold induction GFP (340+341): 0.335
GFP (340+341); relative to empty traffo, replicate 2
  fold induction GFP (340+341): 0.3372
GFP (340+341); relative to empty traffo, replicate 3
  fold induction GFP (340+341): 0.341
GFP (340+341); replicate 1
  2^-(deltaCq) GFP (340+341): 5.66e-5
  Cq GFP (340+341): 32.8608
  Cq(sample) - avg Cq(GAPDH), GFP (340+341): 14.1088
GFP (340+341); replicate 2
  2^-(deltaCq) GFP (340+341): 5.698e-5
  Cq GFP (340+341): 32.8514
  Cq(sample) - avg Cq(GAPDH), GFP (340+341): 14.0993
GFP (340+341); replicate 3
  2^-(deltaCq) GFP (340+341): 5.761e-5
  Cq GFP (340+341): 32.8353
  Cq(sample) - avg Cq(GAPDH), GFP (340+341): 14.0832
